Reference: patent US20250353873A1, “COMPOUNDS AND METHODS FOR MODULATING APOE EXPRESSION” (Ionis Pharmaceuticals, Inc., priority 2024, published 2025)
Strand notation (5' to 3'): a small letter for the sugar, then the base; units joined by * are phosphorothioate-linked, units joined directly phosphodiester-linked; [ ] holds rarer units or linkages, { } end groups; capitals alone tell only the bases. [ms] = mesyl phosphoramidate linkage; e = 2'-O-(2-methoxyethyl) (MOE); [5mC] = 5-methylcytosine; d = 2'-deoxy (DNA)

Test system: human APOE RNA
Assay: Activity in APOE C57BL/6NTac-Apoeem7250 knock-in mice, single ICV bolus, 2 weeks (Example 9)
Format: in vivo
Conditions: single ICV bolus 300 μg
Method: Modified oligonucleotides described above were tested in the APOE knock-in mouse model C57BL/6NTac-Apoeem7250_B-A02(APOE)Tac, a heterozygous APOE mouse model. APOE knock-in mice used in this study express the full-length human APOE gene knocked into the mouse locus. Humanization of APOE gene was done via CRISPR/Cas-9-mediated gene editing, allowing for generation of a model with constitutive expression of human APOE gene. Targeting strategy was based on NCBI transcripts NM_009696.4 (mouse) and NM_000041.4 (human). Mouse genomic sequence from exon 1 to exon 4 (including the 5′ and 3′ UTRs) was replaced with the human counterpart from 141 bp upstream of exon 1 to 28 bp downstream of exon 4. A plasmid allowing expression of Cas9 mRNA, specific gRNA, and the puromycin resistance cassette, and a plasmid containing the homology regions of the mouse APOE gene, and the replaced human region were co-transfected into the Taconic Biosciences C57BL/6N Tac ES cell line. Homologous recombination clones were isolated using positive puromycin selection, and humanized allele was obtained after Cas9-mediated gene editing. C57BL/6NTac-Apoeem7250_B-A02(APOE)Tac mice were used in the in vivo experiments described below.
APOE C57BL/6NTac-Apoeem7250 knock-in mice were divided into groups of 3 mice each. Each mouse received a single ICV bolus of 300 μg of modified oligonucleotide. A group of 3 mice received a single ICV bolus with PBS as a negative control.
Two weeks post treatment, mice were sacrificed and RNA was extracted from cortical brain tissue and spinal cord for quantitative real-time RT-PCR analysis of RNA expression of APOE using human primer probe set RTS3073 (described herein above). APOE RNA levels were normalized to mouse Ppia. Mouse Ppia was amplified using primer probe set m_cyclo24 (described herein above). Results are presented as percent human APOE RNA relative to the amount of human APOE RNA in PBS treated animals, (% control).

## 1693105: 6-10-4 MOE gapmer CTTGGTGAATCTTTATTAAA, linkages sosssszzzssssszssss (e[5mC]*eTeT*eG*eG*eT*dG[ms]dA[ms]dA[ms]dT*d[5mC]*dT*dT*dT*dA[ms]dT*eT*eA*eA*eA) [compound 1693105]
Cortex
  APOE RNA (% control) Cortex: 65 % control
Spinal Cord
  APOE RNA (% control) Spinal Cord: 54 % control
